Patent publication US20160220489A1, “Intranasal Formulation for the Treatment of Cardiopulmonary Resuscitation (CPR), Cardiac Life Support (CLS), Anaphylaxis and/or Anaphylactoid Reactions” (G2B Pharma Inc., priority 2013, published 2016)
Structures can show the parent of a compound that is named as a salt. Where two headings read alike, the source gives them in different places.

Key:
[1] = cited from earlier work
[2] = Source text: Unless otherwise indicated, “primary particle diameter” can refer to the particle size distribution of a powder in its non-aggregated state. Primary particle diameter can be determined using a laser-diffraction particle size distribution analyzer. In some embodiments, the particle size analyzer can be Mastersizer 2000 manufactured by Malvern Instruments Limited.
Unless otherwise indicated, “median diameter” can refer to a diameter that divides particles into two groups of equal numbers: a group with greater diameters and a group with smaller diameters. A median diameter can be determined using a laser-diffraction particle size distribution analyzer and can correspond to 50% volume in a determined cumulative particle size distribution curve. In some embodiments, the particle size analyzer can be Mastersizer 2000 manufactured by Malvern Instruments Limited.
Data Handling • 1. Using Mastersizer 2000 software, combine particle size distribution data obtained for each dispersion pressure. • 2. If necessary, conduct particle size analysis using Wet Dispersion Method. • 3. Choose the optimum dispersion pressure.

[3] = nasal spray, loading dose 5 mg, normal human subjects; cited from earlier work
[4] = system: rats; settings: intramuscular administration in rats; cited from earlier work
[5] = system: rabbits; settings: inhalation in rabbits; cited from earlier work
[6] = system: MUS; settings: in vivo; cited from earlier work
[7] = Dry Dispersion Method, dispersion air pressure 0.5 bar
[8] = Dry Dispersion Method, dispersion air pressure 1.0 bar
[9] = Dry Dispersion Method, dispersion air pressure 2.0 bar
[10] = Dry Dispersion Method, dispersion air pressure 3.0 bar
[11] = Dry Dispersion Method, dispersion air pressure 4.0 bar

C[C@H](CCC(=O)NCCS(=O)(=O)O)[C@H]1CC[C@H]2[C@@H]3CC[C@@H]4C[C@H](O)CC[C@]4(C)[C@H]3C[C@H](O)[C@]12C [bile salts, taurodeoxycholic acid]
nasal mucosal tissue damage ([1]; used as mucosal permeation enhancers (1% taurodeoxycholic acid)): severe nasal mucosal tissue damage

CNC[C@H](O)c1ccc(O)c(O)c1 [epinephrine]
Volume under 10% [2, 7]: 17.8 μm | Volume under 50% [2, 7]: 29.1 μm | Volume under 90% [2, 7]: 45.9 μm | Volume under 10% [2, 8]: 15.5 μm | Volume under 50% [2, 8]: 27.2 μm | Volume under 90% [2, 8]: 43.6 μm | Volume under 10% [2, 9]: 4.8 μm | Volume under 50% [2, 9]: 22.6 μm | Volume under 90% [2, 9]: 41.8 μm | Volume under 10% [2, 10]: 2.7 μm | Volume under 50% [2, 10]: 18.8 μm | Volume under 90% [2, 10]: 38.6 μm | Volume under 10% [2, 11]: 2.4 μm | Volume under 50% [2, 11]: 18.2 μm | Volume under 90% [2, 11]: 38.3 μm | Volume under 10% ([2]; Wet Dispersion Method): 18.1 μm | Volume under 50% ([2]; Wet Dispersion Method): 31.2 μm | Volume under 90% ([2]; Wet Dispersion Method): 50.7 μm | greatest epinephrine plasma concentrations ([1]; intranasal 7.5 mg/kg/nostril of epinephrine after […] of phentolamine, dog): ~1,400 ng/mL | Tmax (peak plasma concentration reached) [3]: 70 ± 17 min | LD50 [4]: 3500 mg/kg | LD50 [5]: 2.5 mg/kg

Cc1ccc(N(CC2=NCCN2)c2cccc(O)c2)cc1 [phentolamine]
IVN-MUS LD50 [6]: 75 mg/kg
